Laboratory results reported in PubChem BioAssay AID651630 (Sanford-Burnham Center for Chemical Genomics, 2012).
Active and inactive are the calls of the source.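 How the source made its calls: active means lipid-stain IC50 at or below a set limit, with nuclear-stain toxicity IC50 at least five times higher; inactive means the rest.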

Tests used:
[1] = tested on: DAPI; assay: TAG lipid buildup inhibition with viability readout – cell-based, panel, Nile Red and DAPI fluorescence, H9c2, dose response (AID 651630); conditions: H9c2 cells, DAPI nuclear fluorescence (cytotoxicity counter-readout), oleic acid;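 further: cells exposed to compound overnight before fixation and staining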
[2] = tested on: TAG; assay: as above; conditions: H9c2 cells, Nile Red TAG fluorescence, oleic acid

Row | Compound | IC50 cytotoxicity (DAPI nuclear signal decrease) ([1]; mean of runs) | IC50 cytotoxicity (DAPI nuclear signal decrease) ([1]; run 1) [µM] | IC50 cytotoxicity (DAPI nuclear signal decrease) ([1]; run 2) [µM] | IC50 ([2]; mean of runs) | IC50 ([2]; run 1) [µM] | IC50 ([2]; run 2) [µM]
1 | CN=C1c2cc3cc(OC)ccc3n2CCN1Cc1ccccc1 | > 25 µM (inactive) | > 25 | > 25 | 10.6 µM | 9.62 | 11.7
2 | COc1cc2c(cc1[N+](=O)[O-])-c1ccc([N+](=O)[O-])cc1C2=NNC(N)=S | > 25 µM (inactive) | > 25 | > 25 | > 25 µM (inactive) | > 25 | > 25
3 | Cn1cc(CN2CCC(C(=O)NC(c3ccc(F)cc3)c3ccc4ccccc4n3)CC2)c2ccccc21 (centres undefined) | 13.7 µM (inactive) | 14.5 | 13 | 10.3 µM | 9.38 | 11.2
4 | O=C(Nc1ccc(S(=O)(=O)N2CCOCC2)cc1)c1ccc([N+](=O)[O-])s1 | > 25 µM (inactive) | > 25 | > 25 | 10.9 µM | 13.1 | 8.75
5 | NC1=NC[C@H](Cc2ccccc2)N1CCc1cc(C(F)(F)F)cc(C(F)(F)F)c1 | > 25 µM (inactive) | > 25 | > 25 | > 25 µM (inactive) | > 25 | > 25
6 | O=C(CSc1nc2ccc(Nc3nc(N4CCOCC4)nc(N4CCOCC4)n3)cc2s1)Nc1ccccc1F | > 25 µM (inactive) | > 25 | > 25 | 12.9 µM | 12.6 | 13.2
7 | C[C@@H]1CN([C@H](C)CO)C(=O)c2c(c3ccccc3n2C)-c2ccccc2CO[C@H]1CN(C)Cc1ccc(Oc2ccccc2)cc1 |  | > 25 | 20 | > 25 µM (inactive) | > 25 | > 25
8 | O=c1c2c3nc4ccccc4nc3n(/N=C/c3ccccn3)c2ncn1-c1ccccc1 |  | > 25 | > 25 | 2.48 µM | 3.37 | 1.59
9 | Cc1cc(N2CCN(Cc3cn(C)nc3-c3ccccc3F)CC2)cc(C)n1 | > 25 µM (inactive) | > 25 | > 25 | 13.1 µM | 11.1 | 15.1
10 | Cc1ccc2c(=O)n3c(nc2c1)C(Cc1ccc(O)cc1)NC(=O)c1cc2ccccc2cc1-3 (centres undefined) | > 25 µM (inactive) | > 25 | > 25 | > 25 µM (inactive) | > 25 | > 25
11 | CCC(=O)Nc1nonc1-c1nc2ccccc2n1Cc1cccc2ccccc12 | > 25 µM (inactive) | > 25 | > 25 | > 25 µM (inactive) | > 25 | > 25
12 | COc1ccc(C(C(=O)NC(C)(C)C)N(Cc2ccco2)C(=O)CCC(=O)Nc2cc(C)on2)cc1 (centres undefined) | > 25 µM (inactive) | > 25 | > 25 | 19 µM (inactive) | 19.9 | 18.1
13 | C=CCC[C@@H](Cc1ccc(F)cc1)C(=O)OC[C@@H](NC(=O)[C@@H](CC=C)CC(=O)N[C@H](CO)Cc1ccccc1)C(C)(C)C | > 25 µM (inactive) | > 25 | > 25 | 9.45 µM | 8.65 | 10.2
14 | CCOc1ccc(C(=O)NC(=S)Nc2cccc(S(=O)(=O)NC3=NCCC3)c2)cc1 | > 25 µM (inactive) | > 25 | > 25 | > 25 µM (inactive) | > 25 | > 25
15 | COc1cccc(-c2nc(-c3ccc(NC(=O)Cc4ccccc4OC)cc3)no2)c1 |  | > 25 | > 25 | 4.52 µM | 3.4 | 5.64
16 | O=P(O)(O)CN1CCNCCN(CP(=O)(O)O)CCNCC1 | > 25 µM (inactive) | > 25 | > 25 |  | 24.7 | > 25
17 | CC(C)(Oc1ccc(Cl)cc1)C(=O)Nc1ccc2oc(-c3ccncc3)nc2c1 | > 25 µM (inactive) | > 25 | > 25 | > 25 µM (inactive) | > 25 | > 25
18 | CCOC(=O)c1[nH]c2ccc(OCC)cc2c1NC(=O)CN1CCN(c2ccccc2)CC1 | > 25 µM (inactive) | > 25 | > 25 | 22.7 µM (inactive) | 20.4 | 25
19 | CN(C)CCNC=C(C(=O)Nc1ccc(Cl)cc1Cl)C(=O)Nc1ccc(Cl)cc1Cl |  | 20.8 | > 25 | 8.69 µM | 8.01 | 9.36
20 | COc1ccc(/C=C2/CCCc3ccccc3C2=O)cc1 | > 25 µM (inactive) | > 25 | > 25 | > 25 µM (inactive) | > 25 | > 25
21 | Cc1ccc(NC(=O)CSc2nnc(C)c(=O)n2N)cc1Cl | > 25 µM (inactive) | > 25 | > 25 |  | 24 | > 25
22 | O=C(Nc1ccccc1)c1ccc(NCC2CCCO2)c(S(=O)(=O)N2CCOCC2)c1 (centres undefined) | > 25 µM (inactive) | > 25 | > 25 | > 25 µM (inactive) | > 25 | > 25
23 | Brc1ccc(-c2csc(NNC3=NCCCCC3)n2)cc1 |  | 21.6 | > 25 | 1.85 µM | 1.55 | 2.15
24 | O=C(C[C@H]1C[C@H](C(=O)N2CCCCC2)[C@@]2(CCc3ccccc3)c3[nH]c4ccc(Cl)cc4c3CCN2C1=O)NCc1cccc(C(F)(F)F)c1 |  | > 25 | > 25 | 3.78 µM | 2.76 | 4.8
25 | COc1cc(NC(=O)c2ccco2)c(OC)cc1NC(=O)CCC(=O)Nc1cccc(C)c1C | > 25 µM (inactive) | > 25 | > 25 |  | > 25 | 22.3
26 | CCc1ccc(/C=N/NC(=O)c2cc(C3CC3)nc3ccc(Br)cc23)s1 | > 25 µM (inactive) | > 25 | > 25 | > 25 µM (inactive) | > 25 | > 25
27 | C=CCn1c(SCc2c(C)noc2C)nc2sc3c(c2c1=O)CCC(C)C3 (centres undefined) | > 25 µM (inactive) | > 25 | > 25 | > 25 µM (inactive) | > 25 | > 25
28 | Cn1nc(-c2ccc(Cl)cc2)c2cc(C(=O)NC3CC3)sc21 | > 25 µM (inactive) | > 25 | > 25 | 10.8 µM | 13 | 8.58
